Experimental data: patent US11672772B2, “Use of glycyrrhetinic acid, glycyrrhizic acid and related compounds for mitigation and/or treatment of pneumonitis/pneumonia/pulmonary fibrosis induced by virus infection and/or by chemical or biological agents” (priority 2020, dated 2023)

Assays:
[1] = test system: Bleomycin (BLM) pneumonitis; assay: Bleomycin-induced pneumonitis in ICR mice (new inhalation method), left and right lung lobes; type: in vivo; conditions: for pathology HE staining of lung: BLM-pneumonitis, GR/GA treatment vs NS; for lung sizes and lung index (lung wet weight/body weight), left and right side: inhaled 110 ul of 5 mg/ml BLM, oral GR 122 mg/kg/day or GA 67 mg/kg/day, three weeks, vs saline (NS)
Method: (§1) The subject invention provides an easy-perform mouse model with inhalation of 110-130 ul of liquid dissolved with various chemicals (e.g., anti-cancer drug or toxic paraquat) deep into whole lung to induce chemicals-pneumonitis. Compared with currently used intratracheal instillation, this new method is more quick (finished within 3 minutes) and non-invasion without surgically exposing the trachea. It delivers agents using a micropipette into the trachea at the back of the throat and allows the mouse to inhale into the lung with operator help for liquid deep-even distribution in the whole lung. This easy operation can quickly set-up for more than one hundred mice with chemicals-pneumonitis, providing enough mice for the screening or validating of various chemical or biological agents for anti-lung inflammation/infection to meet clinical needs.
(§2) A. After anesthesia, a rubber band was attached to the front teeth of the mice, and the mouse body was vertically upright. The tip of the tongue was pulled out with forceps, and 100-130 ul of liquid reagent was dripped into the upper part of the trachea at the back of the throat. The reagent was naturally inhaled into the mouse lung. […] Entire process was about one minute.
(§3) B. The mouse held firmly in the hands of the operator, moved up and down for 3-5 times to let the liquid moving deep into the lung, rotated around for 2-3 circles and repeated for 3 times to let the liquid evenly distributed in the lung. Entire process was about one minute.
Then, the mice were randomly divided into three groups (6 mice/group) and orally given different agents: 1) NS: vehicle of saline; 2) GR: 122 mg/kg/day of GR; 3) GA: 67 mg/kg/day of GA. Three weeks later, mice were sacrificed and the lung lobes of left and right sides were harvested separately.

BLM-pneumonitis = BLM-pneumonitis in C57BL/6 mice; type: in vivo; conditions: for mitigation/treatment effect on the severity of BLM-pneumonitis: 3 week period, compared with Dexamethasone; for neutrophils % / lymphocytes % / number of lymphocytes: C57BL/6 mice with BLM-pneumonitis; for lymphocytes % / number of lymphocytes: vs saline-treated; for body weight / dose as low as which could reduce the severity of BLM-pneumonitis: C57BL/6 mice; for body weight: BLM, oral Dexamethasone 1, GR 70, GA 22 mg/kg/day, 2 weeks; for dose as low as which could reduce the severity of BLM-pneumonitis: oral
Method: as §1, §2, §3
C57BL/6 mice (8 weeks, male) were anesthetized and inhalated 110 ul of 5 mg/ml Bleomycin (BLM) to induce BLM-pneumonitis (new method in FIG. 2). Then, the mice were randomly divided into groups (7 mice/group) and orally given different agents: 1) Normal: as time control without any treatment; 2) NS: treated with saline as vehicle control (all agents in saline); 3) Dexamethasone: 1 mg/kg/day of Dexamethasone; 4) GR: at the indicated three different doses of GR; 5) GA: at the indicated three different doses of GA. Due to the severe BLM-pneumonitis, the inflammatory factors (such as MPO, IL 6 etc.) were released to cause acute reactions: dilation of alveolar capillaries, increased permeability, plasma exudation, blood cells entering the lung interstitium/alveoli, resulting in an increased wet weight of whole lung. The lung index was calculated as: whole lung wet weight/body weight. The higher of lung index, the severer of pneumonitis.
C57BL/6 mice (8 weeks, male) were anesthetized and inhalated 110 ul of 5 mg/ml Bleomycin (BLM) to induce BLM-pneumonitis (new method in FIG. 2). Then, the mice were randomly divided into four groups and orally given different agents: 1) NS: vehicle of saline; 2) Dexamethasone: 1 mg/kg/day of Dexamethasone; 3) GR: 70 mg/kg/day of GR; 4) GA: 22 mg/kg/day of GA. Due to the severe lung inflammation, the body weights of mice were lost during 2 weeks.

[2] = test system: various chemicals-induced pneumonitis (Bleomycin, Cisplatin, 5-Fluorouracil, Mitomycin, Methotrexate, paraquat); assay: Various chemicals-induced pneumonitis in ICR mice; type: in vivo; conditions: for lung index (lung wet weight/body weight) / WBC number in blood: ICR mice, different time points; for lung index (lung wet weight/body weight): various inhaled chemicals, gavage of GR or GA; for WBC number in blood: gavage 122 mg/kg/day of GR or 67 mg/kg/day of GA within one hour; for number of neutrophils: pneumonitis induced by anticancer agents; for NLR (ratio of neutrophils to lymphocytes): various chemicals-induced pneumonitis; for lymphocytes %: various chemicals-induced pneumonitis incl. 5-FU, BLM and Cisplatin
[3] = test system: TGFβ and Collagen I expression in lung tissue; assay: Bleomycin-induced late lung damage, lung tissue q-PCR of pro-fibrosis molecules; type: in vivo, Mice; conditions: 5 weeks after inhalation
Osimertinib-pneumonitis = type: in vivo, human; conditions: GR 300 mg/day orally
Method: A patient with lung cancer was treated with Osimertinib (80 mg/day), targeting EGFR pathway. […] At this time point, GR (300 mg/day) was orally used and the extent of Osimertinib-pneumonitis was reduced after one month use of GR (FIG. 17 C). Six months after using GR, pneumonitis subsided while Osimertinib was continuously used to target EGFR pathway (FIG. 17 D).

H1N1 A/FM/1/47 = assay: H1N1-pneumonia (H1N1-flu model) in mice; type: in vivo, C57BL/6 mice
[4] = test system: IL6 and MPO expression in lung tissue; assay: Bleomycin+Paraquat-induced pneumonitis, lung tissue q-PCR of acute inflammation molecules; type: in vivo; conditions: ICR mice, Bleomycin then paraquat 2 weeks later; sacrificed after 2 weeks
Method: ICR mice were inhalated with 130 ul of 5 mg/ml, and then 2 week later 0.1 mg/ml of paraquat with mitigation using GR or GA. After 2 weeks, mice were sacrificed and the lung tissue were examined with q-PCR for the expression of acute inflammation molecules, such as IL6 and MPO.

H22 liver cancer = assay: Tumor growth in ICR mice bearing H22 liver cancer; type: in vivo; conditions: GA 40 mg/kg
Method: To determine if GR/GA are used for mitigation/treatment of anti-cancer drugs induced pneumonitis has any blocking effect on anticancer, the GA (40 mg/kg) was used in ICR mice bearing with aggressive H22 liver cancer.

H22 tumor = assay: H22 tumor-bearing mice treated with active immunotherapy (H22 vaccine) with GA; type: in vivo
Method: To determine if GA affects the anti-cancer immunotherapy, the H22 tumor-bearing mice were immunized with H22 vaccine, and GA (40 mg/kg) was used for anti-inflammation. The traditional Aspirin (60 mg/kg) was used as drug-control.

[5] = Pharmacokinetics (PK) after oral GR or GA, plasma LC-MS/MS; type: in vivo; conditions: ICR mice, 400 mg/kg of GR or 224 mg/kg of GA (equal mole)
Method: After oral taken, it is converted into GA, an aglycone, fat soluble and easily absorbed through double lipid layer. Therefore, we propose that their pharmacokinetics (PK) should be different. […] 100 μl of plasma was added with 30 μl internal standard solution (100 ng/ml) and then 0.5 ml ethyl acetate. The mixture was vortex mixed for 3 min, centrifuged at 14 000×g for 15 min, and then removed 470 μl of supernatant to dry. After re-dissolved in 100 μl of acetonitrile-water (80[…]20, V/V, mobile phase agent), 20 μl was used for LC-MS/MS analysis.

For `CC1(C)[C@@H](O[C@H]2O[C@H](C(=O)O)[C@@H](O)[C@H](O)[C@H]2O[C@@H]2O[C@H](C(=O)O)[C@@H](O)[C@H](O)[C@H]2O)CC[C@]2(C)[C@H]3C(=O)C=C4[C@@H]5C[C@@](C)(C(=O)O)CC[C@]5(C)CC[C@@]4(C)[C@]3(C)CC[C@@H]12` [GR, glycyrrhizic acid], the “pathology HE staining of lung” value [1] was “less inflitration of inflammation cells and better lung structure”, the “lung sizes and lung index (lung wet weight/body weight), left and right side” value [1] was “significantly reduced” and the “mitigation/treatment effect on the severity of BLM-pneumonitis” value (BLM-pneumonitis) was “better than Dexamethasone”. For the same compound, the neutrophils % (BLM-pneumonitis) was “greatly reduced”, the lymphocytes % (BLM-pneumonitis) was “increased almost to the normal level” and the number of lymphocytes (BLM-pneumonitis) was “increased”. For the same compound, the body weight (BLM-pneumonitis) was “helped mice to maintain their body weight”, the “dose as low as which could reduce the severity of BLM-pneumonitis” value (BLM-pneumonitis) was at most 40 mg/kg/day and the “lung index (lung wet weight/body weight)” value [2] was “significantly reduced”. The “WBC number in blood” value [2] was “reduced”, the number of neutrophils [2] was “reduced” and the “NLR (ratio of neutrophils to lymphocytes)” value [2] was “reduce”. The lymphocytes % [2] was “increased”, the “Collagen I expression in lung tissue (q-PCR)” value [3] was “reduced” and the “TGFb expression in lung tissue (q-PCR)” value [3] was “reduced”. The “extent of Osimertinib-pneumonitis” value (Osimertinib-pneumonitis; after one month) was “reduced”, the Osimertinib-pneumonitis (Osimertinib-pneumonitis; six months, Osimertinib continued) was “subsided” and the lymphocytes number (H1N1 A/FM/1/47; H1N1-pneumonia, vs NS) was “increased it in greater degree than Ribavirin”. For the same compound, the neutrophils % (H1N1 A/FM/1/47; H1N1-pneumonia, vs NS) was “reduced them in greater degree than Ribavirin”, the neutrophils number (H1N1 A/FM/1/47; H1N1-pneumonia, vs NS) was “reduced them in greater degree than Ribavirin” and the lung index (H1N1 A/FM/1/47; day 7, 2×LD50 virus, GR 70 mg/kg gavage once a day) was “acted like Ribavirin to reduce the lung index”. For the same compound, the lymphocytes % (H1N1 A/FM/1/47; day 7 of infection) was “slightly increased”, the IFNg level (H1N1 A/FM/1/47; day 12) was “much less than that in NS and Ribavirin group” and the MCP-1 level (H1N1 A/FM/1/47; day 12) was “reduces MCP-1 to a normal level”. For the same compound, the WBC number (H1N1 A/FM/1/47; day 12) was “reduced WBC number greater than Ribavirin”, the lymphocytes % (H1N1 A/FM/1/47; day 12) was “significantly increased” and the “ratio of neutrophils to lymphocytes (NLR)” value (H1N1 A/FM/1/47; day 12) was “reduced”. For the same compound, the spleen index (H1N1 A/FM/1/47; day 12) was “reduced spleen index” and the lung index (H1N1 A/FM/1/47; day 12, 1×LD50 virus) was “still had a reduced lung index”.
In the case of glycyrrhetinic acid [GA], the “pathology HE staining of lung” value [1] was “less inflitration of inflammation cells and better lung structure”, the “lung sizes and lung index (lung wet weight/body weight), left and right side” value [1] was “significantly reduced” and the “mitigation/treatment effect on the severity of BLM-pneumonitis” value (BLM-pneumonitis) was “better than Dexamethasone”. For the same compound, the neutrophils % (BLM-pneumonitis) was “greatly reduced”, the lymphocytes % (BLM-pneumonitis) was “increased almost to the normal level” and the number of lymphocytes (BLM-pneumonitis) was “increased”. For the same compound, the body weight (BLM-pneumonitis) was “helped mice to maintain their body weight”, the “dose as low as which could reduce the severity of BLM-pneumonitis” value (BLM-pneumonitis) was at most 22 mg/kg/day and the “lung index (lung wet weight/body weight)” value [2] was “significantly reduced”. The “WBC number in blood” value [2] was “reduced”, the number of neutrophils [2] was “reduced” and the “NLR (ratio of neutrophils to lymphocytes)” value [2] was “reduce”. For the same compound, the lymphocytes % [2] was “increased”, the “IL6 expression in lung tissue (q-PCR)” value [4] was “reduces” and the “MPO expression in lung tissue (q-PCR)” value [4] was “reduces”. For the same compound, the “Collagen I expression in lung tissue (q-PCR)” value [3] was “reduced”, the “TGFb expression in lung tissue (q-PCR)” value [3] was “reduced” and the growth of tumor (H22 liver cancer) was “could reduce the growth of cancer in vivo”. The survival (H22 tumor; 80 day follow-up, tumor-bearing mice treated with H22 vaccine and GA) was “could prolong the survival time of mice”, the “effect of combination use on the anti-tumor effect of H22 vaccine” value (H22 tumor; GA 40 mg/kg with H22 vaccine) was “not affected” and the WBC number (H1N1 A/FM/1/47; day 12) was “reduced WBC number greater than Ribavirin”. The lymphocytes % (H1N1 A/FM/1/47; day 12) was “significantly increased” and the Tmax [5] was 30 min.
